Columns and labels:
Experiment in all cases: relative viability (nuclei count vs DMSO), 5 days (fraction); higher = more cells survive
EHT 1864 + Bortezomib = compound: C1COCCN1CC2=CC(=O)C(=CO2)OCCCCCSC3=C4C=CC(=CC4=NC=C3)C(F)(F)F [EHT 1864] + CC(C)C[C@H](NC(=O)[C@H](Cc1ccccc1)NC(=O)c1cnccn1)B(O)O [Bortezomib] (partner 0.002 µM)
In short: (§1)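 Medians of duplicate plates are given as relative viability. That measure is the nuclei count in treated wells divided by the count in vehicle wells. Counts were taken on 4× images of lung cancer cell lines in 1536-well plates, 5 days after pin-tool dosing the day after seeding with one drug alone or a fixed anchor-drug dose plus five library-drug doses (not always all listed) in √10 steps.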

EHT 1864 + Alpelisib = compound: C1COCCN1CC2=CC(=O)C(=CO2)OCCCCCSC3=C4C=CC(=CC4=NC=C3)C(F)(F)F [EHT 1864] + Cc1nc(NC(=O)N2CCC[C@H]2C(N)=O)sc1-c1ccnc(C(C)(C)C(F)(F)F)c1 [Alpelisib] (partner 2 µM)
In short: as §1

EHT 1864 + Pemetrexed = compound: C1COCCN1CC2=CC(=O)C(=CO2)OCCCCCSC3=C4C=CC(=CC4=NC=C3)C(F)(F)F [EHT 1864] + Nc1nc2[nH]cc(CCc3ccc(C(=O)N[C@@H](CCC(=O)O)C(=O)O)cc3)c2c(=O)[nH]1 [Pemetrexed] (partner 0.2 µM)
In short: as §1

EHT 1864 + Olaparib = compound: C1COCCN1CC2=CC(=O)C(=CO2)OCCCCCSC3=C4C=CC(=CC4=NC=C3)C(F)(F)F [EHT 1864] + O=C(c1cc(Cc2n[nH]c(=O)c3ccccc23)ccc1F)N1CCN(C(=O)C2CC2)CC1 [Olaparib] (partner 8 µM)
In short: as §1

| Cell Line | relative viability (EHT 1864 + Bortezomib; first compound 0.04 µM) | relative viability (EHT 1864 + Bortezomib; first compound 0.1265 µM) | relative viability (EHT 1864 + Bortezomib; first compound 0.4 µM) | relative viability (EHT 1864 + Bortezomib; first compound 1.265 µM) | relative viability (EHT 1864 + Bortezomib; first compound 4 µM) | relative viability (EHT 1864 + Alpelisib; first compound 0.04 µM) | relative viability (EHT 1864 + Alpelisib; first compound 0.1265 µM) | relative viability (EHT 1864 + Alpelisib; first compound 0.4 µM) | relative viability (EHT 1864 + Alpelisib; first compound 1.265 µM) | relative viability (EHT 1864 + Alpelisib; first compound 4 µM) | relative viability (EHT 1864 + Pemetrexed; first compound 0.04 µM) | relative viability (EHT 1864 + Pemetrexed; first compound 0.1265 µM) | relative viability (EHT 1864 + Pemetrexed; first compound 0.4 µM) | relative viability (EHT 1864 + Pemetrexed; first compound 1.265 µM) | relative viability (EHT 1864 + Pemetrexed; first compound 4 µM) | relative viability (EHT 1864 + Olaparib; first compound 0.04 µM) | relative viability (EHT 1864 + Olaparib; first compound 0.1265 µM) | relative viability (EHT 1864 + Olaparib; first compound 0.4 µM) | relative viability (EHT 1864 + Olaparib; first compound 1.265 µM) | relative viability (EHT 1864 + Olaparib; first compound 4 µM) |
| --- | --- | --- | --- | --- | --- | --- | --- | --- | --- | --- | --- | --- | --- | --- | --- | --- | --- | --- | --- | --- |
| NCI-H661 | 0.866 | 0.705 | 0.769 | 0.655 | 0.716 | 0.596 | 0.672 | 0.527 | 0.465 | 0.531 | 0.904 | 0.884 | 0.871 | 0.844 | 0.682 | 0.799 | 0.685 | 0.684 | 0.606 | 0.567 |
| NCI-H838 | 0.873 | 0.47 | 0.778 | 0.906 | 0.614 | 0.969 | 0.881 | 0.988 | 0.921 | 0.827 | 0.249 | 0.236 | 0.236 | 0.233 | 0.219 | 0.743 | 0.726 | 0.788 | 0.79 | 0.807 |
| NCI-H1355 | 1.32 | 0.908 | 1.12 | 1.32 | 1.24 | 0.766 | 0.624 | 0.699 | 0.856 | 0.89 | 1.14 | 0.872 | 1.02 | 1.1 | 0.985 | 0.718 | 0.657 | 0.772 | 0.727 | 0.706 |
| NCI-H1437 | 0.563 | 0.476 | 0.475 | 0.486 | 0.473 | 0.988 | 1.04 | 0.899 | 0.805 | 0.652 | 0.321 | 0.302 | 0.263 | 0.286 | 0.246 | 0.621 | 0.587 | 0.622 | 0.523 | 0.523 |
| NCI-H1651 | 0.988 | 0.89 | 0.974 | 0.868 | 0.929 | 0.917 | 0.876 | 0.949 | 0.967 | 0.878 | 0.529 | 0.662 | 0.565 | 0.553 | 0.55 | 0.165 | 0.184 | 0.177 | 0.174 | 0.191 |
| NCI-H1666 | 0.763 | 0.728 | 0.772 | 0.78 | 0.98 | 0.898 | 1.12 | 0.978 | 0.98 | 0.966 | 1.02 | 0.831 | 0.896 | 0.786 | 0.843 | 0.732 | 0.756 | 0.73 | 0.839 | 0.775 |
| NCI-H1734 | 1.09 | 0.788 | 0.914 | 0.902 | 0.901 | 0.741 | 0.629 | 0.627 | 0.609 | 0.64 | 0.45 | 0.385 | 0.463 | 0.394 | 0.432 | 0.71 | 0.64 | 0.619 | 0.679 | 0.635 |
| NCI-H1755 | 1.02 | 0.824 | 0.895 | 0.899 | 0.941 | 0.897 | 0.844 | 0.861 | 0.945 | 0.877 | 0.477 | 0.376 | 0.389 | 0.468 | 0.388 | 0.912 | 0.817 | 0.822 | 0.817 | 0.829 |
| NCI-H1792 | 0.859 | 0.877 | 0.926 | 0.866 | 0.919 | 0.664 | 0.584 | 0.627 | 0.72 | 0.792 | 0.804 |  | 0.735 | 0.776 | 1.1 | 0.466 |  | 0.339 | 0.359 | 0.416 |
| NCI-H1915 | 1 |  | 1.01 | 0.934 | 0.964 | 1.12 |  | 0.988 | 1.05 | 1.05 | 0.474 |  | 0.52 | 0.5 | 0.477 | 0.287 |  | 0.251 | 0.257 | 0.257 |
| NCI-H1975 | 0.343 | 0.395 | 0.376 | 0.32 | 0.369 | 0.628 | 0.614 | 0.6 | 0.618 | 0.572 | 0.271 | 0.28 | 0.274 | 0.291 | 0.285 | 0.812 | 0.828 | 0.781 | 0.791 | 0.719 |
| NCI-H1993 | 0.973 | 0.733 | 1.06 | 1.01 | 1.06 | 0.733 | 0.658 | 0.568 | 0.679 | 0.732 | 0.58 |  | 0.595 | 0.623 | 0.556 | 1.17 |  | 0.971 | 0.966 | 1.05 |
| NCI-H2009 | 0.881 | 0.794 | 1.04 | 0.918 | 0.936 | 1.16 | 1.13 | 1.11 | 1.12 | 0.971 | 1.01 | 0.95 | 1.01 | 0.965 | 0.809 | 0.618 | 0.548 | 0.702 | 0.66 | 0.49 |
| NCI-H2023 | 0.911 | 0.634 | 0.867 | 1.04 | 0.953 | 0.513 | 0.597 | 0.564 | 0.694 | 0.546 | 0.232 | 0.258 | 0.166 | 0.201 | 0.197 | 0.403 | 0.525 | 0.411 | 0.48 | 0.461 |

Reference: the supplement of paper PMC10307832
